{"source": "patent US20260199296A1", "about": "“AGENT FOR PREVENTING OR AMELIORATING ITCH” (KAO CORPORATION, priority 2022, published 2026)", "key": {"human C3a receptor": {"biological_target": "T1, human C3a receptor (Homo sapiens, UniProt Q16581)", "T1 construct": "host or cells: HEK293", "T1 sequence (Q16581 1-482)": "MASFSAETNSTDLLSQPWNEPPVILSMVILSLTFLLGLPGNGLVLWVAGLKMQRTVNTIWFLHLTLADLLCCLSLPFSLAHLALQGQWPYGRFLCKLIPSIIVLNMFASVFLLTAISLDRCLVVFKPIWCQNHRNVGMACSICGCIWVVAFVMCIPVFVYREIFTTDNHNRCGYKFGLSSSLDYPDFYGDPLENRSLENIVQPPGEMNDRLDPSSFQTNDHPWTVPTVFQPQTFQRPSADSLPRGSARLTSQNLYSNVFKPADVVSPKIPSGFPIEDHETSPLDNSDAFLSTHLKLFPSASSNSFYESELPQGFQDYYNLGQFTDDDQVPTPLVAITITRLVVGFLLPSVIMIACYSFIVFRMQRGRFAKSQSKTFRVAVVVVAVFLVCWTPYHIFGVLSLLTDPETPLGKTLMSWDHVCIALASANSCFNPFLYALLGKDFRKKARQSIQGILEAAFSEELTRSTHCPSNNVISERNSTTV", "assay": "Ca2+-flux assay in HEK293 cells expressing human C3a receptor and GNA16", "type": "cell-based", "conditions": "ligands mouse TLQP-21 1 μM or human C3a recombinant protein 300 nM, Fluo-4, HEK293, FIG. 1", "from_the_text": "Mouse TLQP-21 (Tocris Bioscience, sequence: TLOPPASSRRRHFHHALPPAR, the same applies hereinafter) and human C3a recombinant protein (R&D systems) were used. The solvent was HBSS (Gibco).\nThe compound 1 (L-arginine, N2-[[5-(diphenylmethyl)-2-thienyl]carbonyl]) synthesized in accordance with a previous report (Rowley, J. A. et al. Journal of Medicinal Chemistry, 2020; 63 (2): 529-541) and ozanimod (Cayman Chemical) were used as C3a receptor antagonists. In the following evaluation, the compound 1 and ozanimod were dissolved in DMSO and diluted with HBSS as appropriate.\nHuman Embryonic Kidney cells 293 (HEK293) were used, into which the expression vectors necessary for evaluation were introduced according to the following. […]\nThe cells for evaluating C3a receptor response described above were seeded in a BioCoat (Registered Trademark) Poly-D-Lysine 96-well Black Flat Bottom Microplate (CORNING). […] After 15 minutes, C3a receptor ligand solution (mouse TLQP-21 solution or human C3a recombinant protein solution) was added for C3a receptor stimulation, and the Ca^2+ influx associated with the stimulation was measured over time as intracellular fluorescence intensity (Ex: 480 nm, Em: 540 nm). The value obtained by subtracting the measured value when HBSS was added instead of the C3a receptor ligand solution (blank) was used as the measured value. […]"}, "AD model mice (NC/Nga) [1]": {"test_system": "AD model mice (NC/Nga)", "assay": "Amelioration of pruritus in AD model mice by C3a receptor antagonist (mite allergen ointment-induced)", "type": "in vivo, mouse", "conditions": "0.5 mg/mL, 200 μL subcutaneously, three times a week; measured for 3 hours after last administration; FIG. 7", "experimental": "Seven-week-old female NC/Nga mice were used. Preparation of AD model mice: The back of the neck was shaved, and 100 mg of an ointment containing mite allergen: Biostir AD (Biostir Inc.) was applied to the back of the neck and auricular region under isoflurane anesthesia for initial sensitization. Four days after the first application of the ointment containing mite allergen, 150 μL of 4% (w/v) SDS solution and 100 mg of ointment containing mite allergen were applied to the back of the neck and auricular region under isoflurane anesthesia. Thereafter, the same procedure was performed four times at a frequency of once every 3 to 4 days to induce AD-like dermatitis.\nThe compound 1, whose C3a receptor antagonism was confirmed in Example 1 above, was used as a C3a receptor antagonist. The compound 1 was dissolved in saline containing 20% polyethylene glycol 400, of which 200 μL was administered subcutaneously to the back of the neck. The control group was administered the same amount of only the above solvent. The concentration of the C3a receptor antagonist solution was set at 0.5 mg/mL. […]\nFour days after the last application of the ointment containing mite allergen, the scratching behavior was measured for 3 hours after the last administration of the sample. […]"}, "[2]": {"test_system": "AEW model mice (C57BL/6J)", "assay": "Amelioration of pruritus in AEW model mice by C3a receptor antagonist", "type": "in vivo, mouse", "conditions": "0.5 mg/mL, 200 μL subcutaneously, once daily for 8 days; measured for 3 hours after last administration; FIG. 8", "from_the_text": "The animals used were male C57BL/6J mice. Preparation of AEW model: The back of the neck was shaved, and absorbent cotton soaked with a 1:1 (v/v) mixture of acetone and diethyl ether was applied and allowed to stand for 15 seconds. Immediately thereafter, absorbent cotton soaked with water was applied for 30 seconds. This treatment was repeated twice/day (morning and evening) for 7 days.\nThe compound 1, whose C3a receptor antagonism was confirmed in Example 1 above, was used as a C3a receptor antagonist. The compound 1 was dissolved in saline containing 20% polyethylene glycol 400, of which 200 μL was administered subcutaneously to the back of the neck. The control group was administered the same amount of only the above solvent. The concentration of the C3a receptor antagonist solution was set at 0.5 mg/mL. Sample administration started after the first AEW treatment and was performed at a frequency of once daily for 8 days.\nSixteen hours after the last AEW treatment, the scratching behavior was measured for 3 hours after the last administration of the sample. MicroAct (Neuroscience) was used to measure the scratching behavior."}, "AD model mice (NC/Nga) [3]": {"test_system": "AD model mice (NC/Nga)", "assay": "Amelioration of pruritus in AD model mice by ozanimod (fur mite-parasitized NC/Nga)", "type": "in vivo, mouse", "conditions": "oral, 3 mg/mL suspension at 10 ml/kg; measurement time 22 hours; FIG. 9", "experimental": "NC/Nga mice were parasitized with mouse fur mites (M. musculi) to spontaneously generate dermatitis, and were used as an AD model. Fourteen-week-old males having developed dermatitis were used. After one week of acclimation, the back of their necks was shaved and their scratching behavior was measured. The mice were divided into two groups of eight mice each to ensure an equal number of scratching behaviors.\n(§1) Ozanimod (Selleck Biotech) was used. Carboxymethyl cellulose (Maruishi Pharmaceutical Co., Ltd.) prepared at 0.5% with water for injection was used as a solvent. The weighed ozanimod was lightly crushed using an agate pestle, and then the solvent dropwise addition and mixing were repeated to obtain a suspension (3 mg/mL). The preparation was done on the day of administration and stored at room temperature until administration.\nThe dosage (10 ml/kg) was calculated by measuring body weight, and the prepared evaluation samples were administered orally with an oral gavage needle for mice and a disposable syringe.\n(§2) MicroAct (Neuroscience) was used to measure the scratching behavior. […] Measurements were made on the day before (before administration) and on the day of administration (after administration) of ozanimod, and the antipruritic effect of ozanimod was evaluated by comparing the number of scratching behaviors before and after administration."}, "[4]": {"test_system": "ANIT model mice (C57BL/6J)", "assay": "Amelioration of pruritus in model mice of pruritus associated with cholestasis (ANIT model) by ozanimod", "type": "in vivo, mouse", "conditions": "oral, 3 mg/mL suspension at 10 mL/kg; measurement time 22 hours; FIG. 10", "experimental": "Shaved male C57BL/6J mice were used. To eight-week-old C57BL/6J mice, α-naphthyl isothiocyanate (ANIT) dissolved in olive oil (FUJIFILM Wako Pure Chemical) was orally administered once daily for 10 days with an oral gavage needle for mice and a disposable syringe. Before administration, body weight was measured to ensure administration at 25 mg/10 mL/kg (ANIT model).\nas §1\nThe dosage (10 mL/kg) was calculated by measuring body weight, and the prepared evaluation samples were administered orally with an oral gavage needle for mice and a disposable syringe.\nas §2"}}, "data": [{"smiles": "N=C(N)NCCC[C@H](NC(=O)c1ccc(C(c2ccccc2)c2ccccc2)s1)C(=O)O", "note": "[compound 1, L-arginine, N2-[[5-(diphenylmethyl)-2-thienyl]carbonyl]]", "values": [{"measurement": "fluorescence intensity due to C3a receptor stimulation by C3a receptor ligands (integrated value vs control = 100%)", "setting": "human C3a receptor; compound at 1 μM", "value": "suppressed"}, {"measurement": "scratching behavior compared to AD model mice administered with solvent alone", "setting": "AD model mice (NC/Nga) [1]", "value": "significant decrease"}, {"measurement": "scratching behavior compared to AEW model mice administered with solvent alone", "setting": "[2]", "value": "significant decrease"}]}, {"smiles": "CC(C)Oc1ccc(-c2nc(-c3cccc4c3CCC4NCCO)no2)cc1C#N", "note": "(stereo not drawn) [ozanimod, 5-[3-[1-(2-hydroxyethylamino)-2,3-dihydro-1H-inden-4-yl]-1,2,4-oxadiazol-5-yl]-2-isopropoxybenzonitrile]", "values": [{"measurement": "fluorescence intensity due to C3a receptor stimulation by C3a receptor ligands (integrated value vs control = 100%)", "setting": "human C3a receptor; compound at 10 μM", "value": "suppressed"}, {"measurement": "scratching behavior (events) after vs before administration", "setting": "AD model mice (NC/Nga) [3]", "value": "significant decrease"}, {"measurement": "scratching behavior (events) after vs before administration", "setting": "[4]", "value": "significant decrease"}]}]}
